Two compounds from ChEMBL document CHEMBL1201862, “PubChem BioAssay data set” (2004) can be followed below.

The structures appear in SMILES notation.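 48-hour exposure; five concentrations; linearly interpolated endpoints. Abbreviation: GI50, concentration required for 50% inhibition of growth.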 Activity calls are given as the source filed them. Rule as the data show it: active = GI50 up to about 1.1 µM and inactive = higher.

Experiment in all cases: DTP human tumour cell line panel, 48 h
In test [1] the test system is A498.
The test system of test [2] is CCRF-CEM.
For test [3], the system named is COLO 205.
In test [4] the test system is HCC 2998.
The subject of test [5] is HCT-15.
The test system of test [6] is KM12.
Test [7] concerns MOLT-4.
For test [8], the system named is Malme-3M.
In test [9] the test system is NCI-H23.
Test [10] deals with NCI-H522.
In test [11] the test system is OVCAR-5.
Test [12] relates to OVCAR-8.
Test [13] relates to RPMI-8226.
For test [14], the system named is SF-295.
In test [15] the test system is SK-MEL-28.
Test [16] has as its system SK-MEL-2.
Test [17] has as its system SNB-19.
Test [18] deals with SNB-75.
Test [19] has as its system SW-620.
Test [20] relates to U-251.

With `CC(C)=CCc1c(C)cc2cc3c(c(O)c2c1O)C(=O)C=C(O)C3(CC=C(C)C)C/C=C(\C)CO` (stereo not given), the GI50 was 8.81 µM (inactive) in test [1]; 11.5 µM (inactive) in test [2]; 40.5 µM (inactive) in test [3]; 45.2 µM (inactive) in test [4]; 28 µM in test [5]; 41.9 µM (inactive) in [6]. Besides, the GI50 in [7] was 23.2 µM (inactive); in [8], 32.3 µM (inactive); in test [9], 37.4 µM (inactive); in [10], 27.9 µM (inactive); in test [11] it was 48.2 µM (inactive); in test [12], 28.8 µM (inactive). In addition, the GI50 in test [13] was 20.7 µM (inactive); in test [14], 45.2 µM (inactive); in test [15] it was 46.2 µM (inactive); in [16] it was 13 µM (inactive); in test [17] it was 39.8 µM (inactive); in test [18], 48.3 µM (inactive). Moreover, the GI50 in test [19] is 39.8 µM (inactive); in test [20] it was 29.6 µM (inactive).

With `OCC(CO)CC1COc2ccccc2O1` (stereo not given), the GI50 in test [1] was > 10 µM (inactive); in test [2], > 10 µM (inactive); in test [3] it was > 10 µM (inactive); in test [4], > 10 µM (inactive); in [5], more than 10 µM; in test [6], > 10 µM (inactive). For the same compound, the GI50 in test [7], in [8], in test [9], in test [10], in test [11] and in test [12] was > 10 µM (inactive) each time. In addition, the GI50 in test [13], in [14], in [15], in test [16], in [17] and in test [18] was > 10 µM (inactive) throughout. Besides, the GI50 in [19] and in test [20] was > 10 µM (inactive) in each case.

What is called GI50 is the concentration that inhibits growth by half.
